These compounds were tested on mESC Bmi1-luciferase reporter, firefly/renilla ratio, 24 h (assay: compounds raising Bmi1 reporter signal – mouse embryonic stem cells, luciferase, cherry-pick, esBAF inhibitor project, dose response (AID 651717);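 further: luciferase knocked into Bmi1 locus with EF-1a renilla as cell number control; rising ratio signals esBAF inhibition which derepresses Bmi1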).

Point of comparison: `N#CCc1nc(CSc2nc3ccccc3s2)cs1`, AC40 9.73 µM. Against it:
- CCN(CC)S(=O)(=O)c1ccc2c(c1)nc(-c1ccccn1)n2C — within 1.5-fold, 11.1 µM
- CN(C)c1ccc(C=Cc2nccc3ccccc23)cc1 — 5.9-fold lower, 1.65 µM
- COc1ccc(-c2csc(C(C)(O)c3ccccc3)n2)cc1 (stereo not drawn) — 1.5-fold higher, 14.9 µM
- O=C(Nc1nccs1)C(=O)c1c[nH]c2ccccc12 — 13-fold lower, 0.751 µM
- COc1ccc(NC(=O)Nc2cc(C)ccc2F)cc1 — 13-fold lower, 0.738 µM
- Cc1ccc(Cl)c2c(N=Nc3ccccc3)c(O)[nH]c12 — 10-fold lower, 0.93 µM
- CC1CCCN(C(=O)c2cc3c(=O)n4ccccc4nc3s2)C1 (stereo not drawn) — within 1.5-fold, 14.1 µM
- COc1ccc2nc3sc(C(=O)NCCN4CCc5ccccc5C4)cc3cc2c1 — 1.7-fold lower, 5.77 µM
- COc1ccc(Nc2cc(C)c3c(O)cccc3n2)cc1 — 2.5-fold lower, 3.84 µM
- O=C(C[C@@H]1CC[C@@H]2[C@H](COC[C@H](O)CN2C(=O)Nc2ccc(Cl)cc2)O1)NCC1CCCCC1 — 3.7-fold lower, 2.62 µM
- C=CCn1cccc(C(=O)Nc2ccc(Cl)cc2)c1=O — 2.5-fold lower, 3.88 µM
- COc1cccc(NC(=O)c2sc3nc4n(c(=O)c3c2C)CCC4)c1 — 3.6-fold lower, 2.73 µM
- CCCCc1nc2cc(C(=O)N3CCN(c4nc(C)cnc4C)CC3)ccc2o1 — 4-fold lower, 2.43 µM
- O=C1Nc2ccccc2N=C(c2ccc3c(c2)OCO3)C1N(C(=O)c1ccc2ccccc2c1)C1CC1 (stereo not drawn) — 7.7-fold lower, 1.26 µM
- O=c1/c(=C\c2cccnc2)sc2nc3ccccc3n12 — within 1.5-fold, 9.85 µM
- Cc1cc2nc(N3CCN(C(=O)c4cccs4)CC3)sc2cc1C — 4.9-fold lower, 1.98 µM
- CS(=O)(=O)c1ccccc1C(=O)Nc1ccc(-c2nc3ccccc3[nH]2)cc1 — 2.5-fold lower, 3.96 µM
- COc1cccc(-c2nc(-c3ccc(NC(=O)c4cccs4)cc3)no2)c1 — 2.3-fold lower, 4.26 µM
- N#Cc1ccc(C=NN2CCCCCC2)cc1 — 3.7-fold lower, 2.62 µM
- O=C(NC1CCCCCCC1)c1c(O)c2ccccc2[nH]c1=O — 4.4-fold lower, 2.19 µM
- COc1ccc(F)cc1-c1cc(C(=O)Nc2cccnc2)[nH]n1 — 3.2-fold lower, 3.06 µM
- COc1cccc(/C=N/n2c(N)nc3ccccc32)c1OC — 3-fold lower, 3.21 µM
- COC(=O)Cc1csc(Nc2ccccc2Cl)n1 — within 1.5-fold, 6.92 µM
- Nc1c(Cl)cc(N=Nc2ccccc2)cc1Cl — 3-fold lower, 3.27 µM
- Cc1sc(NC(=O)c2cccs2)nc1-c1ccccc1 — 1.8-fold lower, 5.47 µM
- COc1ccc(CNC(=O)COc2ccccc2C(=O)c2cnn(-c3ccccc3)c2)cc1OC — 15-fold lower, 0.642 µM
- Fc1ccc2cc(-c3ccsc3)ncc2c1 — 3.1-fold lower, 3.16 µM
- CS(=O)(=O)c1ccc2nc(NC(=O)c3ccccc3Br)sc2c1 — 1.6-fold lower, 6.16 µM
- CN(C)c1ncnc2c1ncn2-c1ccccc1 — within 1.5-fold, 9.34 µM
- Nc1cc2c(cc1Br)-c1ccccc1C2=NO — within 1.5-fold, 9.76 µM
- O=C(Cc1ccccc1)Nc1ccc2c(c1)OC1(CCCC1)O2 — 2.6-fold lower, 3.73 µM
- CN(C)c1ccccc1-c1csc(N2CCC(C(N)=O)CC2)n1 — lower, < 0.26 µM
- c1ccc(-c2cc3ccccc3[nH]2)cc1 — 1.9-fold lower, 5.17 µM
- COc1ccc(NC(=O)Cc2ccccc2)cc1 — within 1.5-fold, 8.22 µM
- O=S(=O)(c1ccc2ccccc2c1)N1CCN(S(=O)(=O)c2c(F)cccc2F)CC1 — 7.7-fold lower, 1.26 µM
- Cc1cc(NC(=O)Nc2ccc3c(ccn3C)c2)sn1 — 1.9-fold lower, 5.14 µM
- CC(C)C1CCN(C(=O)C2CCC(=O)N(C3CCCCCC3)C2)CC1 (stereo not drawn) — within 1.5-fold, 9.83 µM
- COc1cccc(-c2cc(C(=O)NC3CCCCC3)no2)c1 — 5.7-fold lower, 1.71 µM
- O=C(Nc1cccc(Cl)c1Cl)c1ccc(-c2ccccc2)cc1 — 2.7-fold lower, 3.54 µM
- COc1ccc(S(=O)(=O)Nc2cc(C(=O)NC3CCCCCC3)ccc2N2CCOCC2)cc1 — within 1.5-fold, 7.61 µM
- O=C1CCCc2c1sc1nc3n(c(=O)c21)CCCCC3 — 2.4-fold lower, 4.12 µM
- O=C(NCC1CC1)Nc1ccc(Cl)cc1 — 1.6-fold higher, 15.5 µM
- O=c1cc(-c2ccsc2)oc2ccc(-c3ccc4cc[nH]c4c3)cc12 — within 1.5-fold, 9.01 µM
- Nc1nc(SCc2ccccc2)sc1C(=O)N1CCCCC1 — 3.8-fold lower, 2.53 µM
- COc1ccc(-n2nc(C(=O)NCC(=O)N3CCN(c4ccccc4)CC3)c3ccccc3c2=O)c(OC)c1 — 2.9-fold lower, 3.37 µM
- CCc1ccccc1NC(=O)c1cc(-c2cccc(O)c2)on1 — 1.9-fold lower, 5.03 µM
- Cc1cc(-c2nnco2)c(C)n1-c1ccccc1 — 1.6-fold lower, 6.01 µM
- Cc1ccc(C)c(N2CCN(C(=O)CCc3nc(-c4ccccc4C(F)(F)F)no3)CC2)c1 — 2.1-fold lower, 4.63 µM
- CC(C)CN1C(=O)c2ccc(NC(=O)c3cccs3)cc2C1=O — 2.5-fold lower, 3.84 µM
- c1ccc(Nc2cccc(Nc3ccccc3)n2)cc1 — 2-fold lower, 4.8 µM
- O=C(NC1CCCCCCC1)c1cccc(Cl)c1 — within 1.5-fold, 10.7 µM
- Cc1ccc(OCc2cc(C(=O)N3CCN(C4CCCCC4)CC3)no2)cc1C — within 1.5-fold, 10 µM
- CS(=O)(=O)c1ccccc1C(=O)Nc1ccc(-c2nc3ccccc3o2)cc1 — 2.3-fold lower, 4.29 µM
- Cc1ccc(S(=O)(=O)N(C)CC(=O)Nc2cc(C)ccn2)cc1 — within 1.5-fold, 9.84 µM
- c1ccc(-c2nnc3oc(-c4cccs4)nn23)cc1 — 1.7-fold lower, 5.88 µM
- Cc1ccc(Cn2cc(-c3ccccc3)nn2)cc1 — within 1.5-fold, 7.62 µM
- C/C(=N\NC(=O)c1cccs1)c1ccc2ccccc2c1 — within 1.5-fold, 12 µM
- COC(=O)C(Cc1ccc(OC(=O)c2ccc(Cl)cc2)cc1)N1Cc2ccccc2C1=O (stereo not drawn) — 3.1-fold lower, 3.13 µM
- CC(C)c1ccc(CNc2ncc(Br)cn2)cc1 — 2.3-fold lower, 4.25 µM
- C/C(CC(=O)Nc1ccc(OCc2ccccc2)cc1)=N\NC(=O)C(=O)Nc1ccc(C)c(Cl)c1 — 9.4-fold lower, 1.03 µM
- N#Cc1ccc(-c2cn3c(n2)SCC3)cc1 — 2-fold lower, 4.82 µM
- O=C1c2ccccc2C2N1CCCN2C(=O)c1sc2ccccc2c1Cl (stereo not drawn) — 2.3-fold lower, 4.3 µM
